Test results reported in patent US8470964B2, “Peptides derived from NCAM (FGLs)” (Enkam Pharmaceuticals A/S, priority 2007, dated 2013).

System: (25-35) β-amyloid peptide fragment induced cognitive deficits model in rats
Assay: (25-35) β-amyloid induced cognitive deficits, intranasal administration, SRT
Type: in vivo, rat
Conditions: intranasal, 15 daily doses from day 7 to 21, test 24 hrs after the last administration
Text: FIG. 9. Effects of intranasal administration of FGLs on the β-amyloid neurotoxicity induced deficit on performance in the Social Recognition Test. Rats received an intranasal administration of FGLs at the stated doses or vehicle daily at days 7 to 21 after i.c.v. administration of the (25-35) β-amyloid (A-β) fragment. 8-10 animals per group. Results are expressed as Means and SEM of Recognition Ratio and analyzed by one-sample t-test: **p<0.05.
In this study, the (25-35) β-amyloid peptide fragment induced cognitive deficits model in rats was used to investigate the dose-response (0.08, 0.32 or 1.28 mg/kg) effect of FGLs administered intranasally daily for 15 doses from day 7 to day 21 post β-amyloid peptide i.c.v. injection. The social memory performance was evaluated using the SRT, 22 days after the β-amyloid injection. A statistically significant impairment of short-term memory was observed as a consequence of the (25-35) β-amyloid neurotoxicity in the rats receiving the (25-35) β-amyloid fragment plus vehicle.

Sequence: EVYVVAENQQGKSKA [FGL, reference compound]
- minimum effective dose, impaired short-term memory (SRT): 1.28 mg/kg
